Measurements: publication PMC10850145, “Hormonal steroids induce multidrug resistance and stress response genes in Neisseria gonorrhoeae by binding to MtrR” (Nature Communications, 2024)
Where “and” joins values, the source holds several entries; their conditions need not be identical. Equal values may be shown once. Read-outs that look alike come from different tables or passages of the source.

Test system: mtrC-lacZ expression
Assay type: cell-based, Neisseria gonorrhoeae
Conditions: for Miller units, single well / Miller units, Mean: upper 4-row block; for Miller units, single well: individual replicate; for Miller units, Mean: mean of 4 wells; for β-galactosidase activity, single replicate: ΔmtrR + mtrR R176E in trans; for β-galactosidase activity, individual replicate / β-galactosidase activity, Miller units (single replicate): mtrR WT in cis; for β-galactosidase activity, individual replicate: single replicate values, second (right) block
[1] = 6.25 µM hormone, plate columns 1-6 (WT)
[2] = 6.25 µM hormone, plate columns 7-12 (second strain, not WT)
[3] = 12.5 µM hormone, plate columns 1-6 (WT)
[4] = 12.5 µM hormone, plate columns 7-12 (second strain, not WT)
[5] = 25 µM hormone, plate columns 7-12 (second strain, not WT)
[6] = 50 µM hormone, plate columns 1-6 (WT)
[7] = 50 µM hormone, plate columns 7-12 (second strain, not WT)
[8] = mtrC-lacZ, ΔmtrR + mtrR D171A in trans, 6.25 µM hormone, single replicate
[9] = mtrC-lacZ, ΔmtrR + mtrR D171A in trans, 12.5 µM hormone, single replicate
[10] = mtrC-lacZ, ΔmtrR + mtrR D171A in trans, 25 µM hormone, single replicate
[11] = mtrC-lacZ, ΔmtrR + mtrR D171A in trans, 50 µM hormone, single replicate
[12] = mtrC-lacZ, ΔmtrR + mtrR WT in trans, 6.25 µM hormone, single replicate
[13] = mtrC-lacZ, ΔmtrR + mtrR WT in trans, 12.5 µM hormone, single replicate
[14] = mtrC-lacZ, ΔmtrR + mtrR WT in trans, 25 µM hormone, single replicate
[15] = mtrC-lacZ, ΔmtrR + mtrR WT in trans, 50 µM hormone, single replicate

CC(=O)[C@H]1CC[C@H]2[C@@H]3CCC4=CC(=O)CC[C@]4(C)[C@H]3CC[C@]12C [Progesterone, progesterone]
Miller units (6.25 µM hormone, plate columns 1-6 (WT), plate rows 1-4 (mtrC), single well): 82 Miller units and 48 Miller units and 89 Miller units | Miller units, single well [1]: 82 Miller units and 48 Miller units and 89 Miller units and 47 Miller units | Miller units, Mean [1]: 66 Miller units | Miller units (6.25 µM hormone, plate columns 7-12 (second strain not given), plate rows 1-4 (mtrC), single well): 315 Miller units and 180 Miller units and 172 Miller units | Miller units, single well [2]: 315 Miller units and 180 Miller units and 172 Miller units and 146 Miller units | Miller units, Mean [2]: 203 Miller units | Miller units (12.5 µM hormone, plate columns 1-6 (WT), plate rows 1-4 (mtrC), single well): 112 Miller units and 91 Miller units and 70 Miller units | Miller units, single well [3]: 112 Miller units and 91 Miller units and 70 Miller units and 43 Miller units | Miller units, Mean [3]: 79 Miller units | Miller units (12.5 µM hormone, plate columns 7-12 (second strain not given), plate rows 1-4 (mtrC), single well): 228 Miller units and 168 Miller units and 142 Miller units | Miller units, single well [4]: 228 Miller units and 168 Miller units and 142 Miller units and 163 Miller units | Miller units, Mean [4]: 175 Miller units | Miller units (25 µM hormone, plate columns 1-6 (WT), plate rows 1-4 (mtrC), single well): 152 Miller units and 193 Miller units | Miller units, single well (25 µM hormone, plate columns 1-6 (WT)): 152 Miller units and 193 Miller units and 125 Miller units | Miller units (25 µM hormone, plate columns 7-12 (second strain not given), plate rows 1-4 (mtrC), single well): 253 Miller units and 170 Miller units and 160 Miller units | Miller units, single well [5]: 253 Miller units and 170 Miller units and 160 Miller units and 118 Miller units | Miller units, Mean [5]: 175 Miller units | Miller units (50 µM hormone, plate columns 1-6 (WT), plate rows 1-4 (mtrC), single well): 185 Miller units and 157 Miller units and 126 Miller units | Miller units, single well [6]: 185 Miller units and 157 Miller units and 126 Miller units and 75 Miller units | Miller units, Mean [6]: 136 Miller units | Miller units (50 µM hormone, plate columns 7-12 (second strain not given), plate rows 1-4 (mtrC), single well): 186 Miller units and 138 Miller units and 118 Miller units | Miller units, single well [7]: 186 Miller units and 138 Miller units and 118 Miller units and 96 Miller units | Miller units, Mean [7]: 134 Miller units | induction of mtrC expression (complemented (MtrR+) strains, increasing hormone): could be induced | induction of mtrC expression (loss of MtrR or MtrR-D171A strain): abrogated | Miller units [8]: 150 Miller units and 142 Miller units | β-galactosidase activity (Miller units) [8]: 147 Miller units and 144 Miller units and 150 Miller units and 142 Miller units | Miller units [9]: 139 Miller units and 154 Miller units | β-galactosidase activity (Miller units) [9]: 146 Miller units and 130 Miller units and 139 Miller units and 154 Miller units | Miller units [10]: 164 Miller units | β-galactosidase activity (Miller units) [10]: 161 Miller units and 184 Miller units and 164 Miller units | Miller units [11]: 111 Miller units and 106 Miller units | β-galactosidase activity (Miller units) [11]: 114 Miller units and 91 Miller units and 111 Miller units and 106 Miller units | Miller units [12]: 71 Miller units and 75 Miller units and 104 Miller units and 85 Miller units | β-galactosidase activity (Miller units) [12]: 71 Miller units and 75 Miller units and 104 Miller units and 85 Miller units | Miller units [13]: 90 Miller units and 80 Miller units and 98 Miller units and 88 Miller units | β-galactosidase activity (Miller units) [13]: 90 Miller units and 80 Miller units and 98 Miller units and 88 Miller units | Miller units [14]: 120 Miller units and 101 Miller units and 124 Miller units and 107 Miller units | β-galactosidase activity (Miller units) [14]: 120 Miller units and 101 Miller units and 124 Miller units and 107 Miller units | Miller units [15]: 125 Miller units and 123 Miller units and 130 Miller units and 139 Miller units | β-galactosidase activity (Miller units) [15]: 125 Miller units and 123 Miller units and 130 Miller units and 139 Miller units | β-galactosidase activity (Miller units) (mtrC-lacZ, ΔmtrR strain, 6.25 µM hormone, single replicate): 239 Miller units | β-galactosidase activity (Miller units) (mtrC-lacZ, ΔmtrR strain, 12.5 µM hormone, single replicate): 205 Miller units | β-galactosidase activity (Miller units) (mtrC-lacZ, ΔmtrR strain, 25 µM hormone, single replicate): 223 Miller units | β-galactosidase activity (Miller units) (mtrC-lacZ, ΔmtrR strain, 50 µM hormone, single replicate): 197 Miller units | β-galactosidase activity, single replicate (mtrCDE block (c1-c37), 6.25 µM): 221 Miller units and 281 Miller units and 181 Miller units and 184 Miller units | β-galactosidase activity, single replicate (mtrCDE block (c1-c37), 12.5 µM): 215 Miller units and 235 Miller units and 172 Miller units and 208 Miller units | β-galactosidase activity, single replicate (mtrCDE block (c1-c37), 25 µM): 255 Miller units and 287 Miller units and 177 Miller units and 185 Miller units | β-galactosidase activity, single replicate (mtrCDE block (c1-c37), 50 µM): 296 Miller units and 219 Miller units and 227 Miller units and 184 Miller units | β-galactosidase activity, individual replicate (6.25 µM hormone): 41 Miller units and 35 Miller units | β-galactosidase activity, Miller units (single replicate) (6.25 µM, first data set (c15-c36)): 115 Miller units and 113 Miller units and 101 Miller units and 103 Miller units | β-galactosidase activity, Miller units (single replicate) (6.25 µM, second data set (c53-c74)): 37 Miller units and 29 Miller units | β-galactosidase activity, individual replicate (12.5 µM hormone): 61 Miller units and 54 Miller units | β-galactosidase activity, Miller units (single replicate) (12.5 µM, first data set (c15-c36)): 153 Miller units and 144 Miller units and 132 Miller units | β-galactosidase activity, Miller units (single replicate) (12.5 µM, second data set (c53-c74)): 41 Miller units and 34 Miller units | β-galactosidase activity, individual replicate (25 µM hormone): 90 Miller units and 65 Miller units | β-galactosidase activity, Miller units (single replicate) (25 µM, first data set (c15-c36)): 256 Miller units and 186 Miller units and 175 Miller units and 160 Miller units | β-galactosidase activity, Miller units (single replicate) (25 µM, second data set (c53-c74)): 66 Miller units and 58 Miller units | β-galactosidase activity, individual replicate (50 µM hormone): 111 Miller units and 114 Miller units | β-galactosidase activity, Miller units (single replicate) (50 µM, first data set (c15-c36)): 228 Miller units and 242 Miller units and 200 Miller units and 220 Miller units | β-galactosidase activity, Miller units (single replicate) (50 µM, second data set (c53-c74)): 91 Miller units and 73 Miller units | β-galactosidase activity, single replicate (second block of sheet (c39-c76), 6.25 µM): 130 Miller units and 89 Miller units and 76 Miller units and 71 Miller units | β-galactosidase activity, single replicate (second block of sheet (c39-c76), 12.5 µM): 125 Miller units and 104 Miller units and 71 Miller units and 67 Miller units | β-galactosidase activity, single replicate (second block of sheet (c39-c76), 25 µM): 151 Miller units and 130 Miller units and 84 Miller units and 80 Miller units | β-galactosidase activity, single replicate (second block of sheet (c39-c76), 50 µM): 130 Miller units and 108 Miller units and 88 Miller units and 66 Miller units
